Data reported in US7790761B2, “Blockade of voltage dependent sodium channels” (University College London, priority 2000, dated 2010).
Where two headings read alike, the source gives them in different places.

Key:
[1] = test system: optic nerve axons; assay: Optic nerve pathology: axonal damage caused by the NO donor PAPA/NO; format: cell-based, rat
Procedure: Optic nerves were excised from adult Wistar rats (weighing 240-280 g) after decapitation. They comprised lengths of nerve (each about 9 mm long) running from immediately behind the eyeball to just in front of the optic chiasm. […] The flasks were held in a shaking water bath at 37° C.
(§1) After 1-2 h preincubation in aCSF, test nerves received the NO donor, PAPA/NO (1 mM) for 2 h or OGD was imposed by transferring the nerves for 1 h into aCSF lacking glucose and gassed with 5% CO2 in N2. Afterwards, the nerves were allowed a 90 min recovery period in aCSF. Putative protectant drugs were present from 15 min before until 15 min after the NO exposure or OGD.
After dehydration the tissues were embedded in Durcupan resin. Semithin (1 μm) sections were stained with either toluidine blue.
The data are expressed as mean number of axons greater than 2.5 μm in diameter per […] (±S.E.M.) in fields from 5-39 nerves.

[2] = test system: optic nerve axons; assay: Optic nerve pathology: axonal damage caused by oxygen- and glucose-deprivation (OGD); format: cell-based, rat; details: for Index of Axonopathy: mean ± S.E.M.; for Protection against axonal damage caused by OGD (in words): OGD-exposed rat optic nerve
Procedure: Optic nerves were excised from adult Wistar rats (weighing 240-280 g) after decapitation. They comprised lengths of nerve (each about 9 mm long) running from immediately behind the eyeball to just in front of the optic chiasm. The nerves were incubated in Erlenmeyer flasks (50 ml capacity) containing 20 ml of an artificial CSF (aCSF) solution composed of (mM): NaCl (120) KCl (2.0), CaCl2 (2.0), NaHCO3 (26), KH2PO4 (1.18), MgSO4 (1.19) and glucose (11), continuously gassed with 95% O2/5% CO2. The flasks were held in a shaking water bath at 37° C.
as §1
The nerves were then fixed for 2 h in a mixture of 4% paraformaldehyde and 2.5% glutaraldehyde in 0.1 M phosphate buffer (pH 7.4), and post-fixed with 1% osmium tetroxide for 1 h. After dehydration the tissues were embedded in Durcupan resin. Semithin (1 μm) sections were stained with either toluidine blue.
To quantify the extent of axonal pathology under the light microscope, the degree of distension of the axon profiles was measured using an image analysis system as described previously (Garthwaite et al., (1999), Neuroscience, 94, 1219-1230). The data are expressed as mean number of axons greater than 2.5 μm in diameter per […] (±S.E.M.) in fields from 5-39 nerves.

[3] = test system: sodium channels; assay: [14C]-labelled guanidine flux through sodium channels; format: biochemical, rat; details: inhibition of flux of [14C]-labelled guanidine through sodium channels
[4] = test system: optic nerve; assay: tissue or blood; format: cell-based; details: Rattus norvegicus; 30 μM of each drug; OGD 1 h; cGMP accumulation; compared with protection achieved by TTX; read-out: % protection accorded
[5] = PAPA/NO-exposed rat optic nerve

`COC(=O)c1nn(Cc2ccccc2)c2ccccc12` showed a melting point of 72 to 73 °C.
With `CN1CCN(c2ncc(-c3cc(Cl)cc(Cl)c3Cl)c(N)n2)CC1` [BW619C89, reference compound] the “Index of Axonopathy” value ([1]; PAPA/NO (1 mM) + drug at 100 μM, mean ± S.E.M.) was 26 ± 3 axons greater than 2.5 μm in diameter per 10^4 m^2, the “Effect on axonal pathology caused by NO (in words)” value [1, 5] was “eliminated” and the “Index of Axonopathy” value ([2]; OGD 1 h + drug at 100 μM) was 53 ± 5 axons greater than 2.5 μm in diameter per 10^4 m^2. The “Protection against axonal damage caused by OGD (in words)” value [2] was “able to protect to an equivalent degree”.
In the case of `OCc1ccc(-c2nn(Cc3ccccc3)c3ccccc23)o1` [Example 4, 1-Benzyl-3-(5-hydroxymethyl-2-furyl)-1H-indazole], the IC50 [3] is reported as 17 µM, the “Index of Axonopathy” value ([1]; PAPA/NO (1 mM) + drug at 30 μM, mean ± S.E.M.) is reported as 24 ± 4 axons greater than 2.5 μm in diameter per 10^4 m^2 and the “Effect on axonal pathology caused by NO (in words)” value [1, 5] is reported as “as effective as both these other agents”. The “Index of Axonopathy” value ([2]; OGD 1 h + drug, concentration not given) was 72 ± 15 axons greater than 2.5 μm in diameter per 10^4 m^2 and the “Protection against axonal damage caused by OGD (in words)” value [2] was “able to protect to an equivalent degree”.
Compound `Cn1nc(C(C)(C)C)cc1C(=O)Nc1ccc(C(C)(C)C)cc1` [Example 26, 5-tert-Butyl-2-methyl-2H-pyrazole-3-carboxylic acid (4-tert-butyl-phenyl)-amide] has an IC50 [3] of under 9 µM, an IC50 ([3]; listed as 5-tert-Butyl-2-methyl-2H-pyrazole-3-carboxylic acid (4-tert-butyl-phenyl)-amide) of 2 µM and an inhibition at 30 µM [4] of 18%.
With `O=C(O)c1n[nH]c2ccccc12` [Example 48, Indazole-3-carboxylic acid] the melting point was 261 to 263 °C (dec.).
`CN(C)Cc1noc(-c2nn(Cc3ccccc3)c3ccccc23)n1` [Example 52, 1-Benzyl-3-[3-(N,N-dimethylaminomethyl)-1,2,4oxadiazol-5-yl]indazole] showed an IC50 [3] of 33.9 µM and a melting point of 93 to 95 °C.
With `CCCN(CCCN)/[N+]([O-])=N/O` [PAPA/NO] the “Index of Axonopathy” value ([1]; PAPA/NO (1 mM) for 2 h alone, no protectant, mean ± S.E.M.) was 226 ± 22 axons greater than 2.5 μm in diameter per 10^4 m^2.
With `NC1=N[C@H](O)[C@H]2[C@H]3O[C@]4(O)O[C@@H]([C@@H](O)[C@@]2(N1)[C@@H]4O)[C@]3(O)CO` [Tetrodotoxin] the “Effect on axonal pathology caused by NO (in words)” value [1] was “eliminated” and the “Index of Axonopathy” value [1] was 17 ± 4 axons greater than 2.5 μm in diameter per 10^4 m^2.
